Laboratory results taken from patent EP3325465B1, “PESTICIDALLY ACTIVE PYRAZOLE DERIVATIVES” (Syngenta Participations AG, priority 2015, dated 2017).

Assays:
[1] = test system: Spodoptera littoralis (Egyptian cotton leaf worm); assay: Biological comparison c): insecticidal activity against Spodoptera littoralis, larvicide L-3, feeding/contact, soybean plants; format: in vivo; conditions: 120 h, 5 days after infestation, L3 larvae
Source text: c) Insecticidal activity against Spodoptera littoralis (Egyptian cotton leaf worm): (larvicide L-3, feeding/contact) Soybean plants are sprayed with diluted test solutions in an application chamber. The plants (2 replicates) are infested with 10 L3 larvae 1 day after treatment. Samples are checked 5 days after infestation for mortality, feeding behavior, and growth regulation.

[2] = test system: Diabrotica balteata (Corn root worm); assay: Biological comparison a): insecticidal activity against Diabrotica balteata, maize sprouts; format: in vivo; conditions: 96 h, 4 days after infestation
Source text: The pesticidal/insecticidal properties of the compounds according to embodiments 1 or 2 can be illustrated via the following tests: Spodoptera littoralis (Egyptian cotton leaf worm) • Cotton leaf discs were placed onto agar in 24-well microtiter plates and sprayed with aqueous test solutions prepared from 10'000 ppm DMSO stock solutions. After drying the leaf discs were infested with five L1 larvae. […] Plutella xylostella (Diamond back moth): 24-well microtiter plates with artificial diet were treated with aqueous test solutions prepared from 10'000 ppm DMSO stock solutions by pipetting. After drying, the plates were infested with L2 larvae (10 to 15 per well). The samples were assessed for mortality and growth inhibition in comparison to untreated samples 5 days after infestation. […] Diabrotica balteata, (Corn root worm) • Maize sprouts placed onto an agar layer in 24-well microtiter plates were treated with aqueous test solutions prepared from 10'000 ppm DMSO stock solutions by spraying. After drying, the plates were infested with L2 larvae (6 to 10 per well). […] Thrips tabaci (Onion thrips): Sunflower leaf discs were placed on agar in 24-well microtiter plates and sprayed with aqueous test solutions prepared from 10'000 ppm DMSO stock solutions. After drying the leaf discs were infested with a thrips population of mixed ages. The samples were assessed for mortality 6 days after infestation. […] Tetranychus urticae (Two-spotted spider mite): Bean leaf discs on agar in 24-well microtiter plates were sprayed with aqueous test solutions prepared from 10'000 ppm DMSO stock solutions. After drying the leaf discs were infested with a mite population of mixed ages. The samples were assessed for mortality on mixed population (mobile stages) 8 days after infestation. […] Euschistus heros (Neotropical Brown Stink Bug): • Two weeks old soybean plants were sprayed in a turn table spray chamber with the diluted spray solutions. After drying 2 soybean seeds were added and plants were infested with 10 N2 nymphs of the neotropical brown stink bug Euschistus heros in plastic test boxes. The samples were assessed for mortality in comparison to untreated samples 5 days after infestation. • The following compounds gave at least 80% mortality of Euschistus heros at an application rate of 12.5 ppm: Compounds 3 , 4 , 8 , 39 , 43 , 44 , 46 , 75 , 76 , 77 , 78 , 79 , 80 , 81 , 82 , 88 , 90 , 93 and 95 . Myzus persicae (Green peach aphid): Sunflower leaf discs were placed on agar in a 24-well microtiter plate and sprayed with test solutions at an application rate of 200 ppm. After drying, the leaf discs were infested with an aphid population of mixed ages. After an incubation period of 6 DAT, samples were checked for mortality. The following compounds gave at least 50% mortality of Myzus persicae: Compounds 3 , 4 , 8 , 43 , 44 , 75 , 76 , 77 , 80 , 81 , 90 and 92 . Myzus persicae (Green peach aphid): • Test compounds were applied by pipette into 24 well plates and mixed with Sucrose solution. Application rate: 12.5ppm. The plates were closed with a stretched parafilm. A plastic stencil with 24 holes is placed onto the plate and infested pea seedlings were placed directly on the Parafilm. The infested plate is closed with a gel blotting paper and another plastic stencil and then turned upside down. […]

Cn1nc(C(F)(F)C(F)(F)F)c(C(F)(F)F)c1-n1cc(-c2ccc(Cl)c(C(=O)NC3(C#N)CC3)c2)nn1 [Compound A, reference compound]
0%: mortality at 0.05 ppm ([1]; Concentration 0.05 ppm) | mortality at 0.2 ppm ([1]; Concentration 0.2 ppm) | mortality at 0.8 ppm ([1]; Concentration 0.8 ppm) | mortality at 0.195 ppm ([2]; Concentration 0.195 ppm) | mortality at 0.781 ppm ([2]; Concentration 0.781 ppm)
100%: mortality at 12.5 ppm ([1]; Concentration 12.5 ppm) | mortality at 3.12 ppm ([2]; Concentration 3.12 ppm) | mortality at 12.5 ppm ([2]; Concentration 12.5 ppm) | mortality at 50 ppm ([2]; Concentration 50 ppm)
60%: mortality at 3 ppm ([1]; Concentration 3 ppm)
